How the values were obtained:
Isabrown laying hens = assay: Test 3: feed intake and egg laying of laying hens subject to thermal stress; type: in vivo, hen
Method: Test 3: Study of the Effect of the Administration of a Feed Comprising the Adjuvant with the Scutellaria baicalensis Extract on a Solid Vehicle on the Feed Intake of Laying Hens Subject to Thermal Stress 72 Isabrown laying hens thirty weeks old at the beginning of the test were divided into three groups of twelve cages each containing two hens. The test was carried out until the hens were 38 weeks old. Group 1 received the control feed. Group 2, also called the OTC group, received the control feed supplemented with an antibiotic, 400 ppm of oxytetracycline. Group 3, also called the SCU group, received the control feed supplemented with an extract from the root of Scutellaria baicalensis providing 6 mg of baicalin/kg of feed. After three weeks of distribution of the experimental feed, the hens were subject to a variation in temperature. The temperature of the environment increased from 22° C. (thermal comfort) to 35° C. for 5 days. Food intake, number of eggs laid and average weight of the eggs were recorded every week and every day during the week of the high temperature as well as during the following week. The test was divided into three phases: pre-heat increase phase, thermal stress phase and post-high temperature stress phase.

piglets = assay: Test 5: state of health and resistance to disease of piglets subject to a stress; type: in vivo, pig; conditions: 100 ppm in the feed
Excerpt: Test 5: Study of the Effect of the Administration of a Feed Comprising the Adjuvant with the Extract of Scutellaria baicalensis on a Solid Vehicle on the Improvement in the State of Health and Resistance to Disease of Piglets Subject to a Stress
The piglets were 42 days old at the beginning of the test. Three groups were formed: a control group, a group receiving the same feed supplemented with 100 ppm of an antibiotic (tylosine) and finally the last group receiving a feed supplemented with 100 ppm of an extract of Scutellaria baicalensis, that is 30 ppm of baicalin per kg of feed. The diseases were noted as were the curative treatments used in each groups.

Row | SMILES | egg-laying rate (Isabrown laying hens; 2 weeks including the thermal stress phase and the following week, control 85.2%) [%] | daily feed intake per hen (Isabrown laying hens; thermal stress phase (35° C. for 5 days), OTC 400 ppm in feed, SCU 6 mg baicalin/kg of feed, control 50.9 g) [g] | % Pigs not treated (piglets) [%] | % Pigs treated (piglets) [%] | % treatments (piglets) [%] | Mortality + elimination (%) (piglets) | Number of treatments: Cough (piglets) | Number of treatments: Lame (piglets) | Number of treatments: Lean (piglets) | Number of treatments: Nervous symptoms (piglets) | Number of treatments: Watery diarrhoea (piglets) | Pigs treated per cause: Cough (piglets) | Pigs treated per cause: Lame (piglets) | Pigs treated per cause: Lean (piglets) | Pigs treated per cause: Nervous symptoms (piglets) | Pigs treated per cause: Watery diarrhoea (piglets) | Number of pigs treated (piglets; P (Chi2) <0.05) | Number of treatments (piglets; curative treatments, P (Chi2) <0.05) | Withdrawn from test (piglets; number of pigs) | Number of deaths (piglets; piglets 42 days old at start)
1 | CN(C)[C@@H]1C(O)=C(C(N)=O)C(=O)[C@@]2(O)C(O)=C3C(=O)c4c(O)cccc4[C@@](C)(O)[C@H]3[C@H](O)[C@@H]12 [OTC, oxytetracycline] | 88.5 | 53.5 |  |  |  |  |  |  |  |  |  |  |  |  |  |  |  |  |  | 
2 | CC[C@H]1OC(=O)C[C@@H](O)[C@H](C)[C@@H](O[C@@H]2O[C@H](C)[C@@H](O[C@H]3C[C@@](C)(O)[C@@H](O)[C@H](C)O3)[C@H](N(C)C)[C@H]2O)[C@@H](CC=O)C[C@@H](C)C(=O)/C=C/C(C)=C/[C@@H]1CO[C@@H]1O[C@H](C)[C@@H](O)[C@@H](OC)[C@H]1OC [Tylosine, tylosine] |  |  | 48 | 52 | 56.0 | 4.0 | 7 | 0 | 2 | 1 | 4 | 7 | 0 | 2 | 1 | 4 | 13 | 14 | 1 | 0

Reference: patent publication US11077127B2, “Adjuvant containing baicalin, particularly from a Scutellaria baicalensis extract, and animal feed containing such an adjuvant” (DELTAVIT, priority 2014, dated 2021)
